From patent US20230002324A1, “NAPHTHOQUINONE DERIVATIVES FOR TREATMENT OF OXIDATIVE STRESS DISORDERS” (PTC THERAPEUTICS, INC., priority 2019, published 2023)
Where two headings read alike, the source gives them in different places. Blank lines part the entries; values can stand above or below the compound they belong to.

Tests used:
[1] = system: Q7 cells (ST HDH Q7/7; immortalized mouse striatal cells); test: Q7 Cystine Deprivation cell survival (rescue) assay; format: cell-based; details: 18 h, read-out: Q7 Cystine Deprivation Survival EC50
In short: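 Cells were seeded at 3,000/well and allowed to attach for 5 h at 33 °C. Wells were then washed twice with PBS and switched to cystine-free DMEM containing FBS, 4 mM L-glutamine, 1 mM pyruvate and 30 mg/L methionine to induce ferroptotic death. Compounds were scored for survival rescue.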

[2] = system: Q7 cells (ST HDH Q7/7; immortalized mouse striatal cells); test: Q7 RSL3 challenge cell survival (rescue) assay; format: cell-based; details: Q7 cells, RSL3 2 micromolar, 18 h, Cell Titer Glo, read-out: Q7 RSL3 Survival EC50
In short: (§1)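 Q7 (33° C.) or NHF (37° C.) cells, 3,000/well, attached 5 h, then test compounds at varying final concentrations followed within 15 min by RSL3 (2 micromolar final); 0.3% DMSO. Assay medium identical to growth medium.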

CYP3A4 [3] = molecular target: T1, CYP3A4 (Homo sapiens, UniProt P08684); test: CYP450 Inhibition Assay 2 (pooled human liver microsomes, 5 concentrations); format: in vitro ADME; details: Table 3, HLM 0.05 mg protein/mL, 10 min reaction; for IC50 at 10 min: human, pooled human liver microsomes
T1 construct: from tissue; host or cells: pooled human liver microsomes
T1 sequence (P08684 whole entry): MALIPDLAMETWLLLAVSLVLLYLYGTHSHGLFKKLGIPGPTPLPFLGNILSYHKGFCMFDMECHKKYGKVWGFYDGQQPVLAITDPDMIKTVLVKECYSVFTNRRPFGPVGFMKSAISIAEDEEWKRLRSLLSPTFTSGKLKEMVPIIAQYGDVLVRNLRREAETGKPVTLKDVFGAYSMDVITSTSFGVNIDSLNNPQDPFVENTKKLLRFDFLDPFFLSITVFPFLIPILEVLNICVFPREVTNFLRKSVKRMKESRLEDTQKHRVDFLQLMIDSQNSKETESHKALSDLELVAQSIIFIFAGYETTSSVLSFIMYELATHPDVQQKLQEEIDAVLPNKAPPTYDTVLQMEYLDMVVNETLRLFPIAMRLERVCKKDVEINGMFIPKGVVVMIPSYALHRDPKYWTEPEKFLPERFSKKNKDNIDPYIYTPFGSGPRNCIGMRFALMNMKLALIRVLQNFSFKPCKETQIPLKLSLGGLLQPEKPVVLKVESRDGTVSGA
Experimental: In an alternative experimental design, test compounds were evaluated at 5 concentrations in a 96 well assay plate. Initial combination with pooled human liver microsomes (0.05 mg protein/mL) was followed by a 5 minute incubation. […] The assay plate was incubated for an additional 30 minutes before the reaction was initiated with the addition of NADPH. After 10 minutes of reaction time, the reaction was quenched and samples were analyzed in a similar manner as described above.

[4] = system: normal human fibroblasts (NHF, GM21811); test: NHF GM21811 RSL3 challenge cell survival (rescue) assay; format: cell-based; details: Fibroblast, 48 h, read-out: NHF GM21811 RSL3 Survival EC50
In short: as §1

CYP3A4 [5] = molecular target: T1, CYP3A4; test: CYP450 Inhibition Assay 1 (pooled human liver microsomes, midazolam); format: in vitro ADME; details: for IC50: HLM 0.05 mg/mL, midazolam 5 μM, 5 min; for CYP3A4 inhibition, in words: comment on Table 4
Experimental: The CYP450 inhibition assay provides in vitro assessment of the inhibitory potential of the test compounds against cytochrome P450 enzymes. Selective substrates were incubated with pooled human liver microsomes (HLM) as single substrates. All assays employed 100 mM potassium phosphate buffer at pH 7.4.
The assays were performed in a 96-well PCR plate in a final volume of 140 μL at 37° C. Test compounds were evaluated at seven concentrations to obtain IC50 values, with a final concentration of 0.1% DMSO in the incubation (total organic solvent at 1% in the incubation). Reactions were initiated by the addition of NADPH. After the enzyme-specific incubation time had elapsed, an aliquot from that enzyme reaction was quenched in Acetonitrile with 0.2% Formic Acid. Supernatant from the quenched reactions was diluted with an equal volume of water, prior to analysis by LC-MS/MS.
All samples were analyzed on LC-MS/MS using an AB Sciex 6500+ instrument equipped with electrospray ionization source, coupled to a Shimadzu Nexera X2 system. Samples were separated using a Waters UPLC HSS T3, 1.8 μm column, 1×50 mm (catalog #186003535) at a flow rate of 200 μL/min. Injection volume was 2 μL.

[6] = Q7 cells, cystine-free medium, Cell Titer Glo, 50% relative viability vs Vitamin K2 (1 micromolar)

IC50 (CYP3A4 [3]): 14.2 µM
Structure (SMILES): CCC1=C(Cc2ccc(C(F)(F)F)cn2)C(=O)c2ccccc2C1=O [Example 26, 2-ethyl-3-((5-(trifluoromethyl)pyridin-2-yl)methyl)naphthalene-1,4-dione]
EC50 [1, 6]: < 50 nM
EC50 [2]: < 50 nM
EC50 ([4]; NHF cells, RSL3 2 micromolar, Cell Titer Glo): < 50 nM

IC50 at 10 min (CYP3A4 [3]): ≥ 50 µM
Structure (SMILES): CC1=C(Cc2ncccc2C(F)(F)F)C(=O)c2ccccc2C1=O [Example 39, 2-methyl-3-((3-(trifluoromethyl)pyridin-2-yl)methyl)naphthalene-1,4-dione]
EC50 [1, 6]: < 50 nM

IC50 (CYP3A4 [3]): 37.2 µM
Structure (SMILES): CC1=C(Cc2cc(C(F)(F)F)ccn2)C(=O)c2ccccc2C1=O [Example 9, 2-methyl-3-((4-(trifluoromethyl)pyridin-2-yl)methyl)naphthalene-1,4-dione]
EC50 [1, 6]: < 50 nM

IC50 at 10 min (CYP3A4 [3]): ≥ 50 µM
Structure (SMILES): CC(C)(C)CC1=C(Cc2ccc(C(F)(F)F)cn2)C(=O)c2ccccc2C1=O [Example 28, 2-neopentyl-3-((5-(trifluoromethyl)pyridin-2-yl)methyl)naphthalene-1,4-dione]
EC50 [1, 6]: 50 to 250 nM

IC50 (CYP3A4 [3]): 21.4 µM
Structure (SMILES): CC(C)CC1=C(Cc2ccc(C(F)(F)F)cn2)C(=O)c2ccccc2C1=O [Example 29, 2-isobutyl-3-((5-(trifluoromethyl)pyridin-2-yl)methyl)naphthalene-1,4-dione]
EC50 [1, 6]: < 50 nM

IC50 (CYP3A4 [3]): 17.4 µM
Structure (SMILES): CC1(C2=C(Cc3ccc(C(F)(F)F)cn3)C(=O)c3ccccc3C2=O)CC1 [Example 31, 2-(1-methylcyclopropyl)-3-((5-(trifluoromethyl)pyridin-2-yl)methyl)naphthalene-1,4-dione]
EC50 [1, 6]: < 50 nM

The next lines start with the compound.

Structure (SMILES): CC1=C(Cc2cccnc2)C(=O)c2ccccc2C1=O [Comparison Compound 1, reference compound]
IC50 (CYP3A4 [5]; Table 4 comparison): 0.421 µM
CYP3A4 inhibition, in words (CYP3A4 [5]): very potent inhibitor of CYP3A4

Structure (SMILES): CC(C)C1=C(Cc2ccc(C(F)(F)F)cn2)C(=O)c2ccccc2C1=O [Example 30, 2-isopropyl-3-((5-(trifluoromethyl)pyridin-2-yl)methyl)naphthalene-1,4-dione]
EC50 [1]: < 50 nM
IC50 (CYP3A4 [3]): 10.3 µM
EC50 [4]: < 50 nM

Structure (SMILES): CC1=C(Cc2ccc(C(F)(F)F)cn2)C(=O)c2c(ccc(F)c2F)C1=O [Example 128, 5,6-difluoro-2-methyl-3-((5-(trifluoromethyl)pyridin-2-yl)methyl)naphthalene-1,4-dione]
EC50 [2]: < 50 nM
IC50 (CYP3A4 [5]; Table 3): 1.3 µM

Structure (SMILES): CCC1=C(Cc2ccc(C(F)(F)F)c(C#N)n2)C(=O)c2c(F)ccc(F)c2C1=O [Example 83, 6-((3-ethyl-5,8-difluoro-1,4-dioxo-1,4-dihydronaphthalen-2-yl)methyl)-3-(trifluoromethyl)picolinonitrile]
EC50 [2]: < 50 nM
IC50 (CYP3A4 [5]; Table 3): 2.73 µM

Structure (SMILES): CC1=C(Cc2ccncc2)C(=O)c2ccccc2C1=O [Comparison Compound 2, reference compound]
IC50 (CYP3A4 [5]; Table 4 comparison): 1.07 µM
CYP3A4 inhibition, in words (CYP3A4 [5]): potent CYP3A4 inhibitor

Structure (SMILES): CC1=C(Cc2ccc(C(=O)NCC3CC3)cn2)C(=O)c2ccccc2C1=O [Example 105, N-(cyclopropylmethyl)-6-((3-methyl-1,4-dioxo-1,4-dihydronaphthalen-2-yl)methyl)nicotinamide]
EC50 [1, 6]: 50 to 250 nM
IC50 at 10 min (CYP3A4 [3]): ≥ 50 µM

Structure (SMILES): CC1=C(Cc2ccc(C(=O)N(C)C(C)C)cn2)C(=O)c2ccccc2C1=O [Example 104, N-isopropyl-N-methyl-6-((3-methyl-1,4-dioxo-1,4-dihydronaphthalen-2-yl)methyl)nicotinamide]
EC50 [1, 6]: < 50 nM
IC50 (CYP3A4 [3]): 20.7 µM

Structure (SMILES): [2H]C([2H])([2H])C1=C(Cc2ccc(C(F)(F)F)cn2)C(=O)c2cc(F)cc(F)c2C1=O [Example 57, 5,7-difluoro-3-(methyl-d3)-2-((5-(trifluoromethyl)pyridin-2-yl)methyl)naphthalene-1,4-dione]
EC50 [2]: < 50 nM
IC50 (CYP3A4 [5]; Table 3): 1.49 µM

Structure (SMILES): CC1=C(C(C)c2ccccn2)C(=O)c2ccccc2C1=O (stereo not drawn) [Example 24, 2-methyl-3-(1-(pyridin-2-yl)ethyl)naphthalene-1,4-dione]
EC50 [1, 6]: < 50 nM
IC50 (CYP3A4 [3]): 20.1 µM
